Data as given in publication PMC3454389, “Mining the Sinorhizobium meliloti Transportome to Develop FRET Biosensors for Sugars, Dicarboxylates and Cyclic Polyols” (PLoS ONE, 2012).

Columns and labels:
RL2376-CY = molecular target: T1, RL2376-CY (Rhizobium leguminosarum, UniProt Q1MGQ3); test: FRET biosensor RL2376-CY, in vitro ligand titration; format: binding; details: pCYS (pLMB394), Tris-HCl pH 8.5, read-out: Kd
T1 sequence (Q1MGQ3 24-320): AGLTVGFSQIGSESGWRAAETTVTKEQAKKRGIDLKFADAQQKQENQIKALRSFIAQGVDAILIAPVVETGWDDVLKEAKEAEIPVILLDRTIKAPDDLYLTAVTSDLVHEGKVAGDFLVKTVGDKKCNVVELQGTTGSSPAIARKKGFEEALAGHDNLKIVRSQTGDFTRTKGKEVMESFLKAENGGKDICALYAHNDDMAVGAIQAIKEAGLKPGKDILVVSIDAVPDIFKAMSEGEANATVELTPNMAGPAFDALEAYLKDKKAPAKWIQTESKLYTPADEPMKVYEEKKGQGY
Procedure: (§1) Ligand-induced FRET ratio changes of purified FRET biosensor were screened using a LS55 luminescence spectrometer (PerkinElmer Instruments). Excitation (ex.) was at (λ/slit width) 433/10 nm (CFP) or 549/10 nm (OFP). Emission (em.) was measured at 475/10 nm (CFP), 527/10 nm (YFP), 573/10 nm (OFP) and 644/10 nm (RFP). To confirm that Aphrodite and mKate2 were properly folded their fluorescence was individually tested by direct excitation at 510/6 nm and 588/10 nm respectively.
(§2) Affinity constants (Kd) of FRET biosensors with specific ligands were established using a monochromator microplate reader (Safire, Tecan, Switzerland; CFP ex.: (λ\bandwidth) 433/12 nm, em.: 475/12 nm; YFP em.: 527/12 nm. OFP ex.: 533/12 nm, em.: 563/12 nm; RFP em.: 615/12 nm). Proteins were diluted to give relative fluorescence units (RFU) in the detection range of 30,000 to 50,000 RFU at a gain of 90 to 100, and then were added to a dilution series (10^−3 to 10^−11 M) of ligand in Tris-HCl (pH 8.5, 50 mM). The change in relative emission intensities at 527/477 nm (YFP/CFP) or 615/563 nm (RFP/OFP) was used to determine Kd by fitting the titration curves to a single-site-binding isotherm: [drawing 1] with: R, ratio; Rapo, ratio without ligand; Rsat, ratio at saturation of ligand; n, number of equal binding sites; [L], ligand concentration. Non-linear regression was used to fit the curves using SigmaPlot 11 (Systat Software Inc.) (Hill equation, 4 Parameters, b = 1). All measurements were done in quadruplicate.

RL2376-RO = test: RL2376-RO, FRET ratio change on ligand; format: binding, Rhizobium leguminosarum
Procedure: as §1
as §2, with “Non-linear regression was used to fit the curves using SigmaPlot 11 (Systat Software Inc.) (Hill equation, 4 Parameters, b = 1). All measurements were done in quadruplicate.” left out

YtfQ = molecular target: YtfQ; set-up: method as in PMID 19744923; details: YtfQ from E. coli; cited from earlier work
[1] = test system: genes encoding the ABC-transporter (RL2376-9); details: RL2376, Table 1; cited from earlier work

For O=C[C@H](O)[C@@H](O)[C@@H](O)[C@H](O)CO [D-galactose], which Kd (RL2376-CY) is on record?
Its Kd is 5.3 µM.

And the “change in FRET ratio on binding ligand” value (RL2376-RO)?
Its value is “no change in FRET ratio”.

And the Kd (YtfQ)?
Its Kd is 1.7 ± 0.3 µM.

What about the “Inducer of gene expression (fold change)” value [1] of the same molecule?
The value was “D-galactose (2.6) fold”.
